Assay results as given in patent publication US6229016A, “Method for treating tumors using 2-aryl-naphthyridin-4-ones” (priority 2000, dated 2001).

Tests used:
Type in all cases: cell-based
[1] = test system: NCI's 60 human tumor cell line; test: NCI 60 human tumor cell line in vitro screen (average / whole panel); details: calculated from all cell lines tested, molar concentrations, read-out: average log GI50 (converted)
[2] = test system: HL-60(TB) leukemia cell line; test: cells; details: Homo sapiens; HL-60(TB); read-out: Cytotoxicity log GI50 (converted)
[3] = test system: NCI-H460 non-small cell lung cancer cell line; test: NCI in vitro screen, non-small cell lung cancer NCI-H460; details: Homo sapiens, read-out: Cytotoxicity log GI50 (converted)
[4] = test system: HCT-116 colon cancer cell line; test: NCI in vitro screen, colon cancer HCT-116; details: Homo sapiens; HCT-1.16 (head); HCT-116 (footnote); read-out: Cytotoxicity log GI50 (converted)
[5] = test system: SF-295 CNS cancer cell line; test: NCI in vitro screen, CNS cancer SF-295; details: Homo sapiens, read-out: Cytotoxicity log GI50 (converted)
[6] = test system: U-251 CNS cancer cell line; test: NCI in vitro screen, CNS cancer U-251; details: Homo sapiens, read-out: Cytotoxicity log GI50 (converted)
[7] = test system: SK-MEL-5 melanoma cell line; test: NCI in vitro screen, melanoma SK-MEL-5; details: Homo sapiens, read-out: Cytotoxicity log GI50 (converted)
Excerpt: (§1) Compounds 41-51 and 53-68 were submitted to NCI and assayed in the NCI's in vitro disease-oriented antitumor screen, which involves determination of a test compound's effects on the growth of approximately 60 human tumor cell lines. See, M. R. Boyd, et al. In Cancer: Principles and Practice of Oncology Updates; De Vita, V. T., Hellman, S., Rosenberg, S. A., Eds; J. B. Lippincoft: Philadelphia, pp 1-12 (1989); and A. Monks, et al. J. Natl. Cancer Inst. 83:757 (1991). These lines include leukemia, non-small cell lung, colon, central nervous system (CNS), melanoma, ovarian, renal, prostate, and breast cancers.
(§2) Compounds 29'-51' were submitted to NCI and assayed in the NCI's in vitro disease-oriented antitumor screen, using the techniques described in Example 5. This assay involves determinations of a test agent's effect on growth parameters against a panel of approximately 60 human tumor cell lines, derived largely from solid tumors, including non-small cell lung, colon, central nervous system, renal, ovarian, prostate, and breast cancers, plus a few leukemia cell lines. The cytotoxic effects of each compound are obtained as GI50 or […] values, which represent the molar drug concentrations required to cause half growth inhibition and total growth inhibition, respectively. The results are expressed for each cell line as average log GI50 values in Table 4, as log GI50 values in Table 5, and as log TGI values and average log TGI values in Table 6.

[8] = test system: OVCAR-3 ovarian cancer cell line; test: NCI in vitro screen, ovarian cancer OVCAR-3; details: Homo sapiens, read-out: Cytotoxicity log GI50 (converted)
[9] = test system: 786-0 renal cancer cell line; test: NCI in vitro screen, renal cancer 786-0; details: Homo sapiens, read-out: Cytotoxicity log GI50 (converted)
Excerpt: as §1, §2

[10] = test system: PC-3 prostate cancer cell line; test: NCI in vitro screen, prostate cancer PC-3; details: Homo sapiens, read-out: Cytotoxicity log GI50 (converted)
Excerpt: as §1, §2

[11] = test system: MDA-MB-435 breast cancer cell line; test: NCI in vitro screen, breast cancer MDA-MB-435; details: Homo sapiens, read-out: Cytotoxicity log GI50 (converted)
[12] = test system: MDA-N breast cancer cell line; test: NCI in vitro screen, breast cancer MDA-N; details: Homo sapiens, read-out: Cytotoxicity log GI50 (converted)
Excerpt: as §1, §2

Compound | GI50 [1] [nM] | GI50 [2] [nM] | GI50 [3] [nM] | GI50 [4] [nM] | GI50 [5] [nM] | GI50 [6] [nM] | GI50 [7] [nM] | GI50 [8] [nM] | GI50 [9] [nM] | GI50 [10] [nM] | GI50 [11] [nM] | GI50 [12] [nM]
Cc1cnc2[nH]c(-c3cccc(F)c3)cc(=O)c2c1 [29'] | 50.1 | 20.4 | 38.9 | 24 | 27.5 | 40.7 | 28.2 | 13.5 | 28.2 | 34.7 | < 10 | 11.7
Cc1ccc2c(=O)cc(-c3cccc(F)c3)[nH]c2n1 [30'] | 42.7 | 22.4 | 33.1 | 28.2 | 28.8 | 38 | 22.4 | 19.5 | 45.7 | 34.7 | 12.3 | 14.5
Cc1cc(C)c2c(=O)cc(-c3cccc(F)c3)[nH]c2n1 [31'] | 85.1 | 37.2 | 53.7 | < 10 | 33.1 | 64.6 | 37.2 | 18.2 | 35.5 | 61.7 | < 10 | 12.9
O=c1cc(-c2cccc(Cl)c2)[nH]c2ncccc12 [32'] | 229 | 10.5 | 87.1 | 28.8 | 63.1 | 145 | 52.5 | 45.7 | 56.2 | 22.4 | < 10 | 17.4
Cc1ccnc2[nH]c(-c3cccc(Cl)c3)cc(=O)c12 [33'] | 158 | 10 | 38.9 | 15.8 | 40.7 | 52.5 | 41.7 | 31.6 | 33.1 | 15500 | < 10 | 11.7
Cc1cnc2[nH]c(-c3cccc(Cl)c3)cc(=O)c2c1 [34'] | 269 | 30.9 | 50.1 | 30.2 | 25.1 | 69.2 | 70.8 | 22.4 | 42.7 | > 100000 | < 10 | > 100000
Cc1ccc2c(=O)cc(-c3cccc(Cl)c3)[nH]c2n1 [35'] | 170 | 28.8 | 41.7 | 25.7 | 22.9 | 64.6 | 31.6 | < 10 | 41.7 | > 100000 | < 10 | > 100000
Cc1cc(C)c2c(=O)cc(-c3cccc(Cl)c3)[nH]c2n1 [36'] | 347 | 74.1 | 224 | 170 | 47.9 | 295 | 117 | 170 | 204 | 27.5 | 13.2 | 19.1
Cc1cccc(-c2cc(=O)c3cccnc3[nH]2)c1 [37'] | 95.5 | 19.1 | 25.7 | 22.4 | 37.2 | 44.7 | 25.7 | 41.7 | 37.2 | 42.7 | < 10 | < 10
Cc1cccc(-c2cc(=O)c3c(C)ccnc3[nH]2)c1 [38'] | 57.5 | 18.2 | 36.3 | 46.8 | 30.2 | 53.7 | 33.9 | 22.4 | 53.7 | 33.1 | < 10 | 11
Cc1cccc(C2=Nc3ncc(C)cc3C(=O)C2)c1 [Compound 39, 2-(3'-Methylphenyl)-6-methyl-1,8-naphthyridin-4-one] | 646 | 174 |  | 407 | 417 | 170 | 288 | 251 | 437 | 309 | < 10 | < 10
COc1ccccc1-c1cc(=O)c2cccnc2[nH]1 [Compound 39] | 40700 | 38900 | 38900 | 27500 | 23400 | 67600 | 31600 | 47900 | 36300 | 29500 | 39800 | 20000
Cc1cccc(C2=Nc3nc(C)ccc3C(=O)C2)c1 [Compound 40, 2-(3'-Methylphenyl)-7-methyl-1,8-naphthyridin-4-one] | 97.7 | 26.9 | 17.8 | 120 | 60.3 | 200 | 126 | 490 | 427 | 138 | 32.4 | 31.6
COc1ccccc1-c1cc(=O)c2c(C)ccnc2[nH]1 [Compound 40] | 2820 | 20900 | 24000 | 7590 | 23400 | 35500 | 22400 | 12900 | 60300 | 20900 | 6460 | 8320
Cc1cccc(C2=Nc3nc(C)cc(C)c3C(=O)C2)c1 [Compound 41, 2-(3'-Methylphenyl)-5,7-dimethyl-1,8-naphthyridin-4-one] |  | 12900 | 44700 | 17800 | 64600 | 53700 | 34700 | 30200 | 56200 | 31600 | 20000 | 20900
COc1ccccc1-c1cc(=O)c2cc(C)cnc2[nH]1 [Compound 41] | 31600 | 9550 | 32400 | 42700 | 30900 | 27500 | 20400 | 19500 | 41700 | 26900 | 3020 | 4470
O=C1CC(c2cccc3ccccc23)=Nc2ncccc21 [Compound 42, 2-(α-Naphthyl)-1,8-naphthyridin-4-one] |  | < 10 | 38.9 | < 10 | < 10 | 10.2 | < 10 | < 10 | 15.1 | 17.8 | < 10 | < 10
COc1ccccc1-c1cc(=O)c2ccc(C)nc2[nH]1 [Compound 42] | 79400 | 74100 | 97700 | 38000 | > 100000 | > 100000 | 51300 | > 100000 | > 100000 | > 100000 | 21900 | 20000
Cc1ccnc2c1C(=O)CC(c1cccc3ccccc13)=N2 [Compound 43, 2-(α-Naphthyl)-5-methyl-1,8-naphthyridin-4-one] | 35.5 | < 10 | < 10 | < 10 | 10.7 | < 10 | < 10 | < 10 | 12 | 20 | < 10 | < 10
COc1ccccc1-c1cc(=O)c2c(C)cc(C)nc2[nH]1 [Compound 43] | 57500 | 30200 | 70800 | 74100 | 53700 | > 100000 | 33900 | 64600 | > 100000 | 47900 | 32400 | 33100
Cc1cnc2c(c1)C(=O)CC(c1cccc3ccccc13)=N2 [Compound 44, 2-(α-Naphthyl)-6-methyl-1,8-naphthyridin-4-one] | 19.1 | < 10 | < 10 | < 10 | < 10 | < 10 | < 10 | < 10 | < 10 | < 10 | < 10 | < 10
